Measured values taken from publication PMC3608422 (Xenobiotica; the fate of foreign compounds in biological …, 2011).
Like-named read-outs stand apart in the source and are kept apart here.

What was measured:
[1] = biological target: mouse brain CB1Rs (mCB1Rs) (Mus musculus, UniProt P47746); assay: biochemical; format: binding; details: for Selectivity: mCB1 versus hCB2 binding; for hCB2/mCB1 (Ki ratio): ratio of Ki hCB2 to Ki mCB1
mCB1Rs = mCB1Rs (Mus musculus, UniProt P47746); format: biochemical; details: for effect on basal G-protein activity ([35S]GTPγS binding): 10 µM
[2] = biological target: human CB2Rs (hCB2Rs) stably expressed in CHO cells (Homo sapiens, UniProt P34972); assay: biochemical; format: binding
CB2Rs = details: read-out: affinity for CB2Rs; ref Mechoulam et al. 1995; cited from earlier work
CB1Rs = details: read-out: affinity for CB1Rs; ref Mechoulam et al. 1995; cited from earlier work
[3] = co-administration with 30 µM of the compound
[4] = co-administration with 10 µM of the compound

Chain of human CB2Rs (hCB2Rs) stably expressed in CHO cells (P34972 whole entry): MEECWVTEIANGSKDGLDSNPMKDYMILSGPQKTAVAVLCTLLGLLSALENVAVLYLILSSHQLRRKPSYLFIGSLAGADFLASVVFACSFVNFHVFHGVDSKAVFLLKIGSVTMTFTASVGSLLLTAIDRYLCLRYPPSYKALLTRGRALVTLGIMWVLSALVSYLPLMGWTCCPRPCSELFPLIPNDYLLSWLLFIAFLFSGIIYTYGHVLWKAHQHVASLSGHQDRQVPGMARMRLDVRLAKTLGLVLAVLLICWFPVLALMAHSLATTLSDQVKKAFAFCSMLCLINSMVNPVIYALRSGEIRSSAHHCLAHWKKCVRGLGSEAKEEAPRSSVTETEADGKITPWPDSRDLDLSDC
Chain of mouse brain CB1Rs (mCB1Rs) (P47746 whole entry): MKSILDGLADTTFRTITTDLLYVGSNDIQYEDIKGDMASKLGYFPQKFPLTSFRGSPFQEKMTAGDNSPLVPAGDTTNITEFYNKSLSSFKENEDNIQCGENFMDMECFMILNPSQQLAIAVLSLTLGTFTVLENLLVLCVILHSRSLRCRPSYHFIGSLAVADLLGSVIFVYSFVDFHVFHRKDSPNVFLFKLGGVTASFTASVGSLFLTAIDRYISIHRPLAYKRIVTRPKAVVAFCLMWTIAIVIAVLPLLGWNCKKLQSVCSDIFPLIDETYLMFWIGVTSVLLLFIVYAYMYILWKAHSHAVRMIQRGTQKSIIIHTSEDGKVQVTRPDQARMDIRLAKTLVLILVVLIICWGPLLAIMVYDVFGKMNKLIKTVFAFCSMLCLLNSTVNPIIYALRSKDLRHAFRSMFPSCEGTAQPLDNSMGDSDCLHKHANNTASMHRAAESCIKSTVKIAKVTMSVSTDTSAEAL
Chain of mCB1Rs (P47746 whole entry): as above

Row | Structure (SMILES) | Ki [1] [µM] | effect on basal G-protein activity ([35S]GTPγS binding) (mCB1Rs; mouse brain membranes) | Selectivity [1] | hCB2/mCB1 (Ki ratio) [1] | Ki [2] [µM] | further results
1 | Oc1ccc(/C=C/c2cc(O)cc(O)c2)cc1 [tRes, trans-3,5,4′-trihydroxystilbene, reference compound] | 14.3 ± 1.6 | – | – | – | – | –
2 | CC(C)C=Cc1c(O)cc(/C=C/c2ccc(O)cc2)cc1O [tA3, trans-4-(3-methyl-1-butenyl)-3,5,4′-trihydroxystilbene] | 17.5 ± 3.4 | have little effect | Non-selective | 0.6 | 11.3 ± 0.6 | ED50 of CB1R agonist CP-55,940 to activate G-proteins on co-administration (mCB1Rs; [3]): 0.127 µM; fold increase (shift-to-the-right) in ED50 of CP-55,940 (mCB1Rs; [3]): 30 fold
3 | CC1=CC[C@@H]2[C@@H](C1)c1c(O)cc(CC#CCCCNS(C)(=O)=O)cc1OC2(C)C [O-2050, reference compound] | – | – | – | – | – | effect on G-protein activity ([35S]GTPγS binding) (mCB1Rs; mouse brain membranes, 1 µM): produced no effect
4 | CCCCC/C=C\C/C=C\C/C=C\C/C=C\CCCC(=O)OC(CO)CO [2-arachidonoylglycerol] | – | – | – | – | – | Ki (CB2Rs): ~1.5 µM; Ki (CB1Rs): ~0.5 µM
5 | Oc1cc(O)cc(/C=C/c2ccc(O)c(O)c2)c1 [tPice, trans 3,5,3′,4′-tetrahydroxystilbene, reference compound] | 11.7 ± 1 | markedly reduce | CB1 | 9.7 | 114 ± 7.8 | –
6 | CC(C)C=Cc1c(O)cc(/C=C/c2ccc(O)c(O)c2)cc1O [tA1, trans-4-(3-methyl-1-butenyl)-3,5,3′,4′-tetrahydroxystilbene] | 5.6 ± 0.4 | markedly reduce | Non-selective | 2.3 | 12.6 ± 1.7 | glucuronidation by UGT1A1 (UGT1A1): no visible glucuronidation; ED50 of CB1R agonist CP-55,940 to activate G-proteins on co-administration (mCB1Rs; [4]): 0.028 µM; fold increase (shift-to-the-right) in ED50 of CP-55,940 (mCB1Rs; [4]): 7 fold; maximal response produced by CP-55,940 on co-administration (mCB1Rs; [4]): 0.22 ± 0.04 pmol/mg protein; attenuation by O-2050 of the reduction of basal G-protein activity (mCB1Rs; compound 10 µM co-incubated with neutral CB1R antagonist O-2050 1 µM): did not significantly attenuate; concentration at which substrate inhibition is seen (UGT1A9): > 500 µM
